We go through 3 molecules from article PMC10531311, “Anti-Inflammatory Activities of 8-Benzylaminoxanthines Showing High Adenosine A2A and Dual A1/A2A Receptor Affinity” (International Journal of Molecular Sciences, 2023).

SMILES strings stand for the structures.

One data set concerns the target T1, human adenosine A3R (Homo sapiens, UniProt P0DMS8).
T1 construct: expressed in transfected cells; host or cells: CHO cells
T1 sequence (P0DMS8 1-318): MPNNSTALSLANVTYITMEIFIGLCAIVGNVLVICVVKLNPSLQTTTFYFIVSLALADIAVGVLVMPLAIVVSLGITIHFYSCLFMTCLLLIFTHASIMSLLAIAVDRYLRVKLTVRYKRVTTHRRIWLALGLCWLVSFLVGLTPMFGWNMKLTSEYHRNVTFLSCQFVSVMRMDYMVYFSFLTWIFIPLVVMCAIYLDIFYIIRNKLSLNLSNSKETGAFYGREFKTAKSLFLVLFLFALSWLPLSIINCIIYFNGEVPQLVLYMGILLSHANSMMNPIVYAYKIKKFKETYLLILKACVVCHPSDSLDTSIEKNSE
The experiment in a line: Radioligand binding at human adenosine A3 receptor vs. [3H]PSB-11. Particulars: for inhibition at 1 µM: CHO cells, read-out: A3R vs. [H³]PSB-11 % Inhibition ± SEM at 1 µM; for Ki: human recombinant receptor in CHO cells, read-out: A3R vs. [H³]PSB-11 Ki ± SEM.

For another data set, the target named is T2, human adenosine A2AR (Homo sapiens, UniProt P29274).
T2 construct: expressed in transfected cells; host or cells: CHO cells
T2 sequence (P29274 whole entry): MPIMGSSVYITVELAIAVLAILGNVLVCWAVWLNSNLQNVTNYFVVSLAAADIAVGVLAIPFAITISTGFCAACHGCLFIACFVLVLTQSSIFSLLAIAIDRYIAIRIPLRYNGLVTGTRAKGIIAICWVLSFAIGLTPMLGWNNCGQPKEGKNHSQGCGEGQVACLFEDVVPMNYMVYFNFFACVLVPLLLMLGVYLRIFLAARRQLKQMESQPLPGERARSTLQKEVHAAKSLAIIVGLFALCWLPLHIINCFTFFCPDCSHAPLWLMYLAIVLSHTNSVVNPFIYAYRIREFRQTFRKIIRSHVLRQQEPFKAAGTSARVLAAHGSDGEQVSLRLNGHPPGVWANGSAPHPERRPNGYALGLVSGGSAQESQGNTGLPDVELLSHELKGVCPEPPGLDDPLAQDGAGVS
The experiment in a line: Radioligand binding at human adenosine A2A receptor vs. [3H]MSX-2. Particulars: for potency as A2AR ligand compared with A1R: from Ki values of Table 1; for Ki: human recombinant receptor in CHO cells, read-out: A2AR vs. [³H]MSX-2 Ki ± SEM.

The target of the next data set is T3, CYP3A4 (Homo sapiens, UniProt P08684).
T3 construct: purchased Promega (Madison, WI, USA)
T3 sequence (P08684 whole entry): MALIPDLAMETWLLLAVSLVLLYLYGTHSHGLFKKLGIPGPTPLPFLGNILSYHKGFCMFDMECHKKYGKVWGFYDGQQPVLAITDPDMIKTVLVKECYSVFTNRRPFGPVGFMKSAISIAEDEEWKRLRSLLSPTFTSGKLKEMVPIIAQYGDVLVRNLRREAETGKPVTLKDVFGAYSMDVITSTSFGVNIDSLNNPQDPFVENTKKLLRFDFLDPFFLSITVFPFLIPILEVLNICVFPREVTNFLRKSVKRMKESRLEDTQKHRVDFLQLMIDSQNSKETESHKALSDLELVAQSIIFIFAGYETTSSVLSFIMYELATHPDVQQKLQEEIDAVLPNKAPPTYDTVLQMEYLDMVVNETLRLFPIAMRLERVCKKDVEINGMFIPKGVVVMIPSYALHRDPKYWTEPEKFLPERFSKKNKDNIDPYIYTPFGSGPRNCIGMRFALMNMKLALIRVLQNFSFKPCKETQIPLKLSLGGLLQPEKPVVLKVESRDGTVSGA
The data set can be described thus: Drug-drug interactions, CYP3A4 P450-Glo. Format: in vitro ADME. Particulars: 10 µM. How it is done: (§1) To predict potential drug-drug interactions (DDI) effects on three of the most relevant cytochrome P450 (CYP), isoforms CYP3A4, CYP2D6 and CYP2C9 were investigated at a concentration of 10 µM. The results were compared with the effects of 1 µM of the selective inhibitors ketoconazole (CYP3A4), quinidine (CYP2D6) and sulfaphenazole (CYP2C9).
(§2) The influence of the tested compounds on recombinant human cytochromes was determined with the use of CYP3A4, CYP2D6 and CYP2C9 P450-Glo™ kits and protocols provided by Promega (Madison, WI, USA). Compounds were tested at a concentration of 10 μM. Reference inhibitors: Ketoconazole (CYP3A4), quinidine (CYP2D6) and sulfaphenazole (CYP2C9) were tested at 1 μM. The luminescent signals were measured using a microplate reader EnSpire PerkinElmer (Waltham, MA, USA).

For the next data set, the target named is T4, human adenosine A1R (Homo sapiens, UniProt P30542).
T4 construct: expressed in transfected cells; host or cells: CHO cells
T4 sequence (P30542 1-326): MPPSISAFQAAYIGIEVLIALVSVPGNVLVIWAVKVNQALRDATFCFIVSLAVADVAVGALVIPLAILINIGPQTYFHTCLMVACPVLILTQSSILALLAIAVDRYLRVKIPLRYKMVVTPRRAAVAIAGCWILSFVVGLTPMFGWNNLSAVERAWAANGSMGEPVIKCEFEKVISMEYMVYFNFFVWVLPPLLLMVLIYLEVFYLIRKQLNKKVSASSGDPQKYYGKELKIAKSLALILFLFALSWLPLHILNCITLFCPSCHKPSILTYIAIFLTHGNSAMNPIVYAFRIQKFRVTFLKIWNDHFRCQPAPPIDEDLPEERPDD
The data set can be described thus: Radioligand binding at human adenosine A1 receptor vs. [3H]CCPA. Particulars: human recombinant receptor in CHO cells; read-out: A1R vs. [³H]CCPA Ki ± SEM.

Data set [1] can be described thus: Metabolic stability in human liver microsomes. The settings on record: for number of metabolites formed: HLMs, 120 min; for remaining at 2 h: human, liver microsomes, after 120 min of incubation with HLMs, read-out: % Remaining in the Reaction Mixture. The class given is in vitro ADME. The protocol:
In our study, the compounds were incubated for 120 min with HLMs, followed by liquid chromatography-mass spectrometry (LC-MS) to identify the formed metabolites.
Human liver microsomes (HLMs) were purchased from Sigma-Aldrich (St. Louis, MO, USA; catalog nr M9066-1VL). The studies with microsomes were supported by MetaSite 6.0.1 software provided by Molecular Discovery Ltd. (Hertfordshire, UK), which allowed for the determination of the most probable sites of metabolism. The compounds were incubated with HLMs for 120 min. After the addition of methanol and centrifugation, the supernatants were analyzed with the Waters ACQUITY™ TQD system (Waters, Milford, CT, USA). All reference drugs used (caffeine, ketoconazole, quinidine and sulfaphenazole) were purchased from Sigma-Aldrich (St. Louis, MO, USA).
Background: Microsomes from liver hold many membrane-bound enzymes, among them those of drug oxidation.

Data set [2] concerns BV-2 cells treated with LPS. The data set can be described thus: Griess assay, NO production. Particulars: BV-2, LPS 1 μg/mL 24 h; at the lowest concentrations (19: 100 nM; 22: 100 and 200 nM).
Experimental: To assess the ability of compounds to inhibit NO production, the Griess assay was applied. This is a colorimetric assay to measure the levels of nitrite (NO2^−), which is one of the primary and stable metabolites of NO. The anti-inflammatory activity of compounds was examined in BV-2 cells treated with LPS as previously described [19]. Briefly, BV-2 cells were first pre-treated with increasing concentrations of tested compounds for 1 h, followed by LPS (1 μg/mL) stimulation for 24 h. Together with the Griess assay, the 3-(4,5-dimethylthiazol-2-yl)-5-(3-carboxymethoxyphenyl)-2-(4-sulfophenyl)-2H-tetrazolium (MTS) assay was performed to ensure that the decrease in NO level was not an effect of toxicity.
Griess reagent (Sigma-Aldrich, Saint Louis, MO, USA, G4410) was freshly prepared by dissolving 1 g in ultrapure water and mixing by inversion for about 4 min under protection from light. […] The plate was incubated for 15 min at room temperature and the absorbance was read at 540 nm using the EnSpire microplate reader (PerkinElmer, Waltham, MA, USA). Data were analyzed by direct comparison based on the average absorbance of LPS treatment, compound treatment or co-treatment with LPS, performed by normalizing treated cells (compound alone or co-treatment with LPS) to LPS-treated cells set at 100%.
Another data set has as its target T5, CYP2D6 (Homo sapiens, UniProt P10635).
T5 construct: purchased Promega (Madison, WI, USA)
The data set can be described thus: Drug-drug interactions, CYP2D6 P450-Glo. The class given is in vitro ADME. Particulars: 10 µM. How it is done:
as §1, §2

T5 sequence (P10635 whole entry): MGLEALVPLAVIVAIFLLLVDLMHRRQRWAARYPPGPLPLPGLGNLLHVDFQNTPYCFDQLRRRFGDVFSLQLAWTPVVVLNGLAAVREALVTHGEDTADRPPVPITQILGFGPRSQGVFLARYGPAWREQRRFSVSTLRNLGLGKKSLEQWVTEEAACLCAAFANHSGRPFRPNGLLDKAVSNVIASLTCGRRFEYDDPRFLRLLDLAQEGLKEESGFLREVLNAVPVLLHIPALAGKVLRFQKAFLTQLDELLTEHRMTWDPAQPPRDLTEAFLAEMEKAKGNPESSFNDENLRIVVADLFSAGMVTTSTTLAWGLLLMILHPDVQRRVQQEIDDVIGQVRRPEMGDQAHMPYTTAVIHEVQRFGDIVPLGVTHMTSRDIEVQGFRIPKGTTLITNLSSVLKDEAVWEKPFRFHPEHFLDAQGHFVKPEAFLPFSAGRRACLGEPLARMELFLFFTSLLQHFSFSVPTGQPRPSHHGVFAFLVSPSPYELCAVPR

On to `C#CCn1c(=O)c2c(nc(NCc3ccccc3Cl)n2C)n(C)c1=O` [compound 19, 8-((2-Chlorobenzyl)amino)-3,7-dimethyl-1-(prop-2-yn-1-yl)-3,7-dihydro-1H-purine-2,6-dione], for which, on human adenosine A3R, the inhibition (as a rule, the percentage by which the read-out fell short of the control) at 1 µM was 9% and the Ki (usually a measure of affinity in units of concentration, obtained from inhibition or displacement) is > 1 µM. On human adenosine A2AR, the “potency as A2AR ligand compared with A1R” value is recorded as “four times more potent as A2AR ligand” and the Ki was determined as 0.096 ± 0.031 µM. The “CYP3A4 activity, % of the control activity” value (from here on “CYP3A4 activity, %”) at CYP3A4 is ~ 20%. Further, the Ki at human adenosine A1R stood at 0.407 ± 0.075 µM. In addition, in data set [1], the “number of metabolites formed” value is given as “two metabolites” and the amount remaining (commonly what is left of the initial amount, in per cent) at 2 h was > 95%. Also, the “anti-inflammatory activity in Griess assay (in words)” value in data set [2] is reported as “moderate anti-inflammatory activity”.
Regarding `C#CCn1c(=O)c2c(nc(NCc3c(F)cccc3Cl)n2C)n(C)c1=O` [compound 22, 8-((2-Chloro-6-fluorobenzyl)amino)-3,7-dimethyl-1-(prop-2-yn-1-yl)-3,7-dihydro-1H-purine-2,6-dione], on human adenosine A3R, the inhibition at 1 µM was determined as 21% and the Ki is > 1 µM. Further, at human adenosine A2AR, the “potency as A2AR ligand compared with A1R” value is on record as “twice more potent as A2AR ligand” and the Ki is 0.062 ± 0.005 µM. Moreover, the “CYP3A4 activity, %” value at CYP3A4 was “around 75%”. Also, the Ki on human adenosine A1R was determined as 0.13 ± 0.034 µM. Besides, in data set [1], the “number of metabolites formed” value was “one metabolite” and the fraction remaining at 2 h is > 90%. Also, the “anti-inflammatory activity in Griess assay (in words)” value in data set [2] was “moderate anti-inflammatory activity”.
Take `C#CCn1c(=O)c2c(nc(NCc3cccc(Br)c3)n2C)n(C)c1=O` [compound 24, 8-((3-Bromobenzyl)amino)-3,7-dimethyl-1-(prop-2-yn-1-yl)-3,7-dihydro-1H-purine-2,6-dione]: on human adenosine A3R, the inhibition at 1 µM was found to be 7% and the inhibition constant Ki was > 1 µM. On human adenosine A2AR, the “potency as A2AR ligand compared with A1R” value is on record as “equal potency for both receptors” and the Ki worked out at 0.077 ± 0.024 µM. For the same molecule, the “CYP3A4 activity, %” value at CYP3A4 was ~ 20%. In addition, at CYP2D6, the “effect on CYP2D6 activity (in words)” value is “slight, statistically significant inhibition”. Moreover, the Ki on human adenosine A1R was found to be 0.072 ± 0.008 µM. Also, in data set [1], the “number of metabolites formed” value is “one metabolite” and the amount remaining at 2 h was > 95%.
